The values below come from PMC8781869, “Thioester-Containing Benzoate Derivatives with α-Glucosidase Inhibitory Activity from the Deep-Sea-Derived Fungus Talaromyces indigoticus FS688” (Marine Drugs, 2021).

Test [1] deals with α-glucosidase from Saccharomyces cerevisiae. Nature of the test: α-Glucosidase inhibition assay (pNPG substrate, absorbance at 405 nm). It is filed as biochemical. To be noted: for α-glucosidase inhibitory effect at a single concentration: at a concentration of 100 μM; for IC50: in vitro, PBS pH 7.0, 37 °C, triplicate, read-out: α-Glucosidase inhibitory activity IC50. As for the experimental part:
An […] were used to measure the circular dichroism (ECD) and the UV spectra, respectively. ECD and UV spectra were recorded at the range of 200–400 nm under N2 gas […]. IR spectra were recorded on a Shimadzu IR Affinity-1 spectrophotometer. All the NMR spectra were measured on a 600 MHz Bruker Avance-III HD spectrometer and the tetramethylsilane was used as an internal standard. HR-ESI-MS was measured on a Bruker maXis high-resolution mass spectrometer. A Shimadzu LC-20 AT (equipped with an SPD-M20A PDA detector) was used for the preparative separations. The ACE 5 PFP-C18 column (250 × 10.0 mm, 5 μm, 12 nm) was used for semi-preparative HPLC separation and the CHIRAL-MD (2)-RH column (250 × 10.0 mm, 5 μm) was used for chiral separation (Guangzhou FLM Scientific Instrument Co., Ltd, Guangzhou, China). The commercial silica gel (SiO2; 200–300 mesh; Qingdao Marine Chemical Plant, Qingdao, China) and Sephadex LH-20 gel (GE Healthcare Bio-Sciences ABSE-751, Uppsala, Sweden) were used for column chromatography. All solvents were of analytical grade (Guangzhou Chemical Regents Company, Ltd., Guangzhou, China). The natural sea salt was purchased from Guangdong Yueyan saltern. The α-glucosidase from Saccharomyces cerevisiae and p-nitrophenyl-α-d-glucopyranoside (p-NPG) used in bioassays were purchased from Sigma-Aldrich (St. Louis, MO, USA).
The method used for the α-glucosidase inhibitory activity assay was based on previously reported literature with slight modification. The pre-reaction mixture consisted of 130 μL of PBS (100 mM, pH 7.0), 30 μL of enzyme (1 U/mL) and 0.5 μL of the test compounds at different concentrations. After incubation at 37 °C for 10 min, 40 μL of pNPG was added and the mixture was further incubated at 37 °C for 15 min. Finally, the absorbance was measured at 405 nm on an automatic microplate reader. […] All experiments were carried out in triplicate.

The subject of the next test is α-glucosidase. Further details: method as in PMID 24955555. To be noted: previously reported screening; cited from earlier work.

Where only a bound is given, the exact number is not on record here.

As a reminder, the IC50 is the midpoint of a concentration-inhibition curve. On to `COc1cc(O)cc(C)c1C(=O)SC` [Compound 6, Eurothiocin H], for which, in test [1], the “α-glucosidase inhibitory effect at a single concentration” value (“α-glucosidase inhibitory effect” for short) is “weak inhibitory effects” and the concentration for half-maximal inhibition (IC50) is above 100 µM. With `CSC(=O)c1c(C)cc2c(c1O)CC(C(C)(C)OC1OC(CO)C(O)C(O)C1O)O2` (stereo not drawn) [Compound 2, Eurothiocin D], the IC50 in test [1] was 5.4 µM. Turning to `CSC(=O)c1c(C)cc2c(c1O)C[C@H](C(C)(C)O)O2` [Compound 7, eurothiocin A], the “α-glucosidase inhibitor (qualitative)” value in the test with α-glucosidase is listed as “potential α-glucosidase inhibitor”. For `CSC(=O)c1c(C)cc(O)c(C/C=C(\C)CO)c1O` [Compound 4, Eurothiocin F], the IC50 in test [1] amounted to 33.6 µM. In the case of `COc1c(C)c(C(=O)SC)c(O)c2c1OC(C(C)(C)O)C2` (stereo not drawn) [Compound 1, Eurothiocin C], the “α-glucosidase inhibitory effect” value in test [1] was “weak inhibitory effects”. As to `CSC(=O)c1c(C)cc(O)c(CCC(C)(C)O)c1O` [Compound 5, Eurothiocin G], the IC50 in test [1] worked out at 72.1 µM. Regarding `CSC(=O)c1c(C)cc(O)c(CC=C(C)C)c1O` [Compound 3, Eurothiocin E], in test [1], the “α-glucosidase inhibitory effect” value is reported as “weak inhibitory effects” and the half-inhibitory concentration (IC50) was above 100 µM.
